Measurements as given in article PMC4767442 (Oncotarget, 2015).

Key:
[1] = system: MCF-7 human breast adenocarcinoma cell line; experiment: MTT proliferation/viability assay, MCF-7; format: cell-based; conditions: MCF7, 72 h/37°C, mean ± S.D.
Experimental: (§1) The MCF-7 human breast adenocarcinoma cell line was purchased from the European Collection of Cell Cultures (U.K.). The HL-60 human promyelocytic leukemia cell line, HCT116 human colorectal carcinoma cell line, H9c2 rat heart-derived myoblast cell line and 3T3 mouse embryo fibroblast line, were obtained from the American Type Culture Collection (VA, U.S.A.). Cells were cultured in Dulbecco's modified Eagle's medium (DMEM, Lonza, Switzerland) with or without (for MCF-7 cells only) phenol red, supplemented with 10% heat-inactivated fetal bovine serum (FBS; Lonza, Switzerland), 1% penicillin/streptomycin solution (Lonza, Switzerland) and 10 mM HEPES buffer (pH 7.0-7.6; Sigma-Aldrich, Germany). The HL-60 cell line was maintained in RPMI medium (Sigma-Aldrich, Germany) supplemented with 10% heat-inactivated FBS and 1% penicillin/streptomycin solution. All cell lines were cultured in 75 cm^2 tissue culture flasks (Switzerland) at 37°C in a humidified atmosphere of 5% CO2. Sub-confluent cells or, in the case of HL-60 cells, a cell suspension, were sub-cultured every 3-4 days.
(§2) Cells were seeded in 96-well plates for 24 h/37°C at a density of 5,000 (MCF-7), 10,000 (HL-60), 2,000 (HCT116) and 10,000 (3T3 and H9c2) cells/well. For 3T3 and H9c2 cells, the medium was changed to serum- and pyruvate-free DMEM 24 h prior to the experiments. Anti-proliferative and cytotoxicity effects of the compounds were studied at different concentrations after incubations for 72 h/37°C. Viabilities of cells were determined using MTT assays (Sigma-Aldrich, Germany) according to the manufacturer's instructions on a Tecan Infinite 200M plate reader (Tecan, Austria). The proliferation/viability of treated groups was expressed as a percentage of the untreated controls (100%).

[2] = system: HCT116 human colorectal carcinoma cell line; experiment: MTT proliferation/viability assay, HCT116; format: cell-based; conditions: HCT-116, 72 h/37°C, mean ± S.D.
Experimental: as §1, §2

[3] = system: MCF-7 cells; experiment: In-vitro metabolism of the drugs in MCF-7 cells (HPLC-MS); format: in vitro ADME, human; conditions: MCF-7, 10 μmol·L^−1, 12 h, 37°C
Experimental: (§3) Breast cancer cells (MCF-7) and H9c2 heart-derived myoblasts were seeded in 100-mm Petri dishes (1,000,000 cells/dish) for 24 h/37°C. Freshly prepared stock solutions of Dp44mT and DpC in DMSO (Sigma-Aldrich, Germany) were diluted in culture medium to the required working concentration.
(§4) The cells were incubated for 12 h (37°C) with either Dp44mT or DpC at a concentration of 10 μmol·L^−1. After this incubation, the cells were harvested, washed twice with ice-cold PBS buffer, centrifuged (790 x g) and precipitated with acetonitrile (200 μL/10^6 cells) prior to the analysis. The overlaying medium was also analyzed to search for possible metabolites. […] All samples were analyzed using HPLC-MS as described below in the Section: HPLC-MS method to identify metabolites of the drugs.
(§5) To search for the metabolites, plasma was precipitated with methanol or acetonitrile (plasma/solvent ratio – 1:3, v/v), treated using solid phase extraction (SPE; Discovery DSC-PH, Supelco, PA, U.S.A.), or liquid-liquid extraction with various solvents (ethyl acetate, toluene, dichloromethane). […] These samples were then analyzed using HPLC-MS with ion trap mass analyzer implementing the settings described previously with minor modifications (for details of the analyses see Supplementary Material, part 2.1). […]

[4] = set-up: method as in earlier work; conditions: chronically repeated dosing at high non-optimal levels (Dp44mT, mice, ref 1); DpC at markedly higher doses; cited from earlier work
[5] = system: H9c2 heart-derived myoblasts; experiment: In-vitro metabolism of the drugs in H9c2 cells (HPLC-MS); format: in vitro ADME, rat; conditions: H9c2, 10 μmol·L^−1, 12 h, 37°C
Experimental: as §3, §4, §5

[6] = Post-preparative stability in the autosampler at 10°C; format: physicochemical; conditions: for decomposition on storage (in words): 24 h storage in the autosampler at 10°C; for Post-preparative stability: autosampler 10°C, 24 h
Experimental: The UHPLC-MS/MS methods for quantitative assays were validated with respect to selectivity, linearity, precision, accuracy, stability, recovery, matrix effects and dilution integrity (see […]
Supplementary Table 1-3). […]
Stability was assessed at low, medium and high concentration levels. Long -term stability was assessed for plasma samples at -80°C over a period of 7 days (three aliquots per level; Supplementary Table 3). […]

[7] = system: cellular labile iron pools; experiment: Fluorimetric calcein-AM assay of intracellular iron chelation; format: cell-based; conditions: 10 μmol·L^−1
Experimental: Iron chelation efficiency of the compounds at a concentration of 10 μmol·L^−1 was determined via 3 methods: (1) the calcein assay; (2) the ability of the ligands to induce ^59Fe mobilization from cells prelabeled with ^59Fe-transferrin; and (3) the efficacy of these agents to inhibit the uptake of ^59Fe from ^59Fe-transferrin [22, 38–40].
The fluorimetric calcein-AM assay was performed by established methods, as described previously. The Fe chelation efficiency of the metabolites in cells was expressed as a percentage of that of the parent chelator, Dp44mT or DpC (100%). For studies assessing the ability of these agents to induce ^59Fe mobilization and inhibit ^59Fe uptake from ^59Fe-transferrin by cells, human transferrin (Sigma-Aldrich, Germany) was labeled with ^59Fe (PerkinElmer, MA, USA) to generate ^59Fe-transferrin at a final specific activity of 500 pCi/pmol Fe, as previously described. The unbound ^59Fe was removed by exhaustive vacuum dialysis against a large excess of 0.15 M NaCl buffered to pH 7.4 with 1.4% NaHCO3 by standard methods.

[8] = system: HL-60 human promyelocytic leukemia cell line; experiment: MTT proliferation/viability assay, HL-60; format: cell-based; conditions: 72 h/37°C, mean ± S.D.
Experimental: as §1, §2

[9] = system: cancer cell lines (HL-60, MCF-7 and HCT116); experiment: MTT assay, cancer cell lines as a group; format: cell-based; conditions: Homo sapiens, HL-60, MCF-7, HCT116, 72 h/37°C, read-out: IC50 against cancer cells (range over cell lines)
Experimental: as §1, §2

[10] = high concentration level (2.105-3.115 µmol·L-1)
[11] = low concentration level (0.035-0.156 µmol·L-1)
[12] = medium concentration level (0.702-1.558 µmol·L-1)

| IC50 [1] [nM] | IC50 [2] [nM] | metabolism in cancer cells [3] | metabolism in heart-derived myoblasts [5] | decomposition on storage (in words) [6] | Post-preparative stability [6, 10] [%] | Post-preparative stability [6, 11] [%] | Post-preparative stability [6, 12] [%] | IC50 [8] [nM] | IC50 [9] [nM] | Structure (SMILES) | cardiac fibrosis [4] | intracellular Fe chelation efficacy (in words) [7] |
| --- | --- | --- | --- | --- | --- | --- | --- | --- | --- | --- | --- | --- |
| 3 ± 1 | 5 ± 1 | do not undergo significant metabolism | do not undergo significant metabolism | No significant decomposition | 107.34 | 97.48 | 95.68 | 3 ± 1 | 3 to 5 | CN(C(=S)NN=C(c1ccccn1)c1ccccn1)C1CCCCC1 [DpC, di(2-pyridyl)ketone 4-cyclohexyl-4-methyl-3-thiosemicarbazone] | does not induce cardiac fibrosis | comparable to Dp44mT |
| 9 ± 2 | 6 ± 1 | do not undergo significant metabolism | do not undergo significant metabolism | No significant decomposition | 98.90 | 93.70 | 95.92 | 2 | 2 to 9 | CN(C)C(=S)NN=C(c1ccccn1)c1ccccn1 [Dp44mT, di(2-pyridyl)ketone 4,4-dimethyl-3-thiosemicarbazone] | cardiac fibrosis was demonstrated | high intracellular chelation efficacy |
